Columns and labels:
[1] = test system: SW-620; experiment: Cell cycle arrest in human SW620 cells assessed as accumulation at S-phase at 30 uM after 12 to 16 hrs by propidium iodide staining based flow cytometry (reference value: 53.91%); format: functional
[2] = test system: SW-620; experiment: Cell cycle arrest in human SW620 cells assessed as accumulation at S-phase at 5 uM after 12 to 16 hrs by propidium iodide staining based flow cytometry (reference value: 53.91%); format: functional
[3] = test system: SW-620; experiment: Cell cycle arrest in human SW620 cells assessed as accumulation at G1-phase at 30 uM after 12 to 16 hrs by propidium iodide staining based flow cytometry (reference value: 24.69%); format: functional
[4] = test system: HCT-116; experiment: Cell cycle arrest in human HCT116 cells assessed as accumulation at G2-phase at 5 uM after 12 to 16 hrs by propidium iodide staining based flow cytometry (reference value: 13.28%); format: functional
[5] = test system: SW-620; experiment: Cell cycle arrest in human SW620 cells assessed as accumulation at G1-phase at 15 uM after 12 to 16 hrs by propidium iodide staining based flow cytometry (reference value: 24.69%); format: functional
[6] = test system: HCT-116; experiment: Cell cycle arrest in human HCT116 cells assessed as accumulation at G2-phase at 30 uM after 12 to 16 hrs by propidium iodide staining based flow cytometry (reference value: 13.28%); format: functional
[7] = test system: HCT-116; experiment: Cell cycle arrest in human HCT116 cells assessed as accumulation at G2-phase at 15 uM after 12 to 16 hrs by propidium iodide staining based flow cytometry (reference value: 13.28%); format: functional
[8] = test system: HCT-116; experiment: Cell cycle arrest in human HCT116 cells assessed as accumulation at G1-phase at 15 uM after 12 to 16 hrs by propidium iodide staining based flow cytometry (reference value: 30.99%); format: functional
[9] = test system: SW-620; experiment: Cell cycle arrest in human SW620 cells assessed as accumulation at G2-phase at 5 uM after 12 to 16 hrs by propidium iodide staining based flow cytometry (reference value: 19.02%); format: functional
[10] = test system: SW-620; experiment: Cell cycle arrest in human SW620 cells assessed as accumulation at S-phase at 15 uM after 12 to 16 hrs by propidium iodide staining based flow cytometry (reference value: 53.91%); format: functional
[11] = test system: SW-620; experiment: Cell cycle arrest in human SW620 cells assessed as accumulation at G2-phase at 15 uM after 12 to 16 hrs by propidium iodide staining based flow cytometry (reference value: 19.02%); format: functional
[12] = test system: HCT-116; experiment: Growth inhibition of human HCT116 cells after 72 hrs by Celltiter-glo assay; format: functional, cell-based; details: HCT-116, 72 h
[13] = test system: HCT-116; experiment: Cell cycle arrest in human HCT116 cells assessed as accumulation at S-phase at 15 uM after 12 to 16 hrs by propidium iodide staining based flow cytometry (reference value: 55.74%); format: functional
[14] = test system: SW-620; experiment: Cell cycle arrest in human SW620 cells assessed as accumulation at G1-phase at 5 uM after 12 to 16 hrs by propidium iodide staining based flow cytometry (reference value: 24.69%); format: functional
[15] = test system: HCT-116; experiment: Cell cycle arrest in human HCT116 cells assessed as accumulation at S-phase at 30 uM after 12 to 16 hrs by propidium iodide staining based flow cytometry (reference value: 55.74%); format: functional
[16] = test system: HCT-116; experiment: Cell cycle arrest in human HCT116 cells assessed as accumulation at G1-phase at 5 uM after 12 to 16 hrs by propidium iodide staining based flow cytometry (reference value: 30.99%); format: functional
[17] = test system: SW-620; experiment: Cell cycle arrest in human SW620 cells assessed as accumulation at G2-phase at 30 uM after 12 to 16 hrs by propidium iodide staining based flow cytometry (reference value: 19.02%); format: functional
[18] = test system: SW-620; experiment: Growth inhibition of human SW620 cells after 72 hrs by Celltiter-glo assay; format: functional, cell-based; details: SW-620, 72 h
[19] = test system: HCT-116; experiment: Cell cycle arrest in human HCT116 cells assessed as accumulation at S-phase at 5 uM after 12 to 16 hrs by propidium iodide staining based flow cytometry (reference value: 55.74%); format: functional
[20] = test system: HCT-116; experiment: Cell cycle arrest in human HCT116 cells assessed as accumulation at G1-phase at 30 uM after 12 to 16 hrs by propidium iodide staining based flow cytometry (reference value: 30.99%); format: functional
[21] = target: CDK8/Cyclin C (Homo sapiens, UniProt P49336); experiment: Inhibition of kinase tracer 236 binding to recombinant full length His-tagged human CDK8/CycC expressed in baculovirus expression system preincubated for 20 mins followed by tracer addition and measured after 2 hrs by FRET-based LanthaScreen Eu kinase binding assay
Chain of CDK8/Cyclin C (P49336 whole entry): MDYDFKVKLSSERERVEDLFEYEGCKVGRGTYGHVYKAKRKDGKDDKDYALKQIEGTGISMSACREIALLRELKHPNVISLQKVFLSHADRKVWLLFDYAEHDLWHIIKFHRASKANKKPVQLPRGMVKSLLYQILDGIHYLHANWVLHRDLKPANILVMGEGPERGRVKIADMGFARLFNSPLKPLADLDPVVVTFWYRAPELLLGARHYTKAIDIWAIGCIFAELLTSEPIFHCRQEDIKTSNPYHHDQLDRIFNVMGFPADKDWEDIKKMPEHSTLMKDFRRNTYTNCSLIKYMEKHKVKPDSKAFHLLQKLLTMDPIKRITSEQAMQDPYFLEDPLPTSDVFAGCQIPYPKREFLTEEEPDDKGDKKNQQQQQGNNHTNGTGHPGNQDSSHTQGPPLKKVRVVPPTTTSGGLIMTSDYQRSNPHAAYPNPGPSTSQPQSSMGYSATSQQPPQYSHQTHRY
Chain of CDK8/Cyclin C (P24863 whole entry, further chain): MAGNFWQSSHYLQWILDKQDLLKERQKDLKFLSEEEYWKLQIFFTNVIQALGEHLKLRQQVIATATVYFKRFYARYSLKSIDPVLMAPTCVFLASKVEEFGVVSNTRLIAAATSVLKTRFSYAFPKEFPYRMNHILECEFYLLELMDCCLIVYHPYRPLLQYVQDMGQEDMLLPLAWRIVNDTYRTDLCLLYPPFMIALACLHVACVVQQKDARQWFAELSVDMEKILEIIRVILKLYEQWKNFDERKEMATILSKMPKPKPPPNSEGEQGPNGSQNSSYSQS

[22] = test system: HCT-116; experiment: Induction of G1-phase to S-phase transition arrest in human HCT116 cells after 12 to 16 hrs by propidium iodide staining based flow cytometry; format: functional, cell-based

Cc1n[nH]c2ncc(C(=O)N3CCC[C@H]3c3ccc(Cl)cc3)cc12 showed an Activity [1] of 50.77%, an Activity [2] of 56.44% and an Activity [3] of 34.8%. It also gave an Activity [4] of 21.76%, an Activity [5] of 30.31% and an Activity [6] of 27.16%. For the same molecule, the Activity [7] was 24.8%, the Activity [8] was 47.08% and the Activity [9] was 13.83%. For the same molecule, the Activity [10] was 54.86%, the Activity [11] was 12.35% and the IC50 [12] was 70.2 µM. For the same molecule, the Activity [13] was 27.98%, the Activity [14] was 27.52% and the Activity [15] was 22.36%. The Activity [16] was 48.91%, the Activity [17] was 11.66% and the IC50 [18] was 52.4 µM. It also gave an Activity [19] of 29.34% and an Activity [20] of 50.47%.

With COc1ccc(CNc2ncnc3scc(-c4ccccc4)c23)cc1 the IC50 [21] was 2.9 µM.

COc1ccc(C(=O)c2cnc3ccc(F)cc3c2N2CCCCC2)cc1 was tested, and the Activity [1] was 38.54%, the Activity [2] was 54.27% and the Activity [3] was 41.68%. For the same molecule, the Activity [4] was 13.13%, the Activity [22] was “Dose-dependent effect” and the Activity [5] was 28.05%. The Activity [6] was 13.86%, the Activity [7] was 13.92% and the Activity [8] was 47.09%. It also gave an Activity [9] of 18.15%, an IC50 [21] of 1.3 µM and an Activity [10] of 51.89%. It also gave an Activity [11] of 17.69%, an IC50 [12] of 4.5 µM and an Activity [13] of 38.98%. For the same molecule, the Activity [14] was 25.08%, the Activity [15] was 23.48% and the Activity [16] was 35.24%. It also gave an Activity [17] of 16.94%, an IC50 [18] of 25 µM and an Activity [19] of 51.63%. It also gave an Activity [20] of 62.66%.
